This note sets out measurements from patent publication US10759822B2 (priority 2016, dated 2020).

Each structure is given as a SMILES string.

For data set [1] the following is noted: mouse, in vivo.
The conditions of data set [2]: mouse, in vivo; for MRT0-t: Kunming, iv, 1 mg/kg.

With `C/C(=C(\CCOC(=O)CCCC(=O)OC1CCC(N(C)C(=O)c2ccc3nonc3c2)CC1)SSCCC(C)C)N(C=O)CC(=O)OCC1OC(O)C(O)C(O)C1O` [Compound 19, Pentanedioic acid anti-4-[(benzo[c][1,2,5]oxadiazole-5-carbonyl)-methyl-amino]-cyclohexyl ester 3-isopentyldisulfanyl-4-[formyl-(D-glucos-6-yl-carbonylmethyl)-amino]-pent-3-enyl ester], in data set [1], the “(AUC0-t)prodrug group/(AUC0-t)prototype drug group” value amounted to 0.73. In data set [2], the “(AUC0-t)prodrug/(AUC0-t)prototype drug” value was determined as 1.41.
Turning to `C/C(=C(\CCOC(=O)CCCC(=O)OC1CCC(N(C)C(=O)c2ccc3nonc3c2)CC1)SSCC(C)C)N(C)C=O` (stereo not drawn) [Compound 13, Pentanedioic acid anti-4-[(benzo[c][1,2,5]oxadiazole-5-carbonyl)-methyl-amino]-cyclohexyl ester 3-isobutyldisulfanyl-4-(formyl-methyl-amino)-pent-3-enyl ester], the “(AUC0-t)prodrug group/(AUC0-t)prototype drug group” value in data set [1] turned out to be 0.60. Moreover, in data set [2], the “(AUC0-t)prodrug/(AUC0-t)prototype drug” value is 1.96.
On the same counts, the results for `C/C(=C(\CCOC(=O)CCCC(=O)OC1CCC(N(C)C(=O)c2ccc3nonc3c2)CC1)SSCc1ccccc1)N(C)C=O` (stereo not drawn) [Compound 16, Pentanedioic acid anti-4-[(benzo[c][1,2,5]oxadiazole-5-carbonyl)-methyl-amino]-cyclohexyl ester 3-benzyldisulfanyl-4-(formyl-methyl-amino)-pent-3-enyl ester] are 0.41 and 1.86.
With `CCSS/C(CCOC(=O)CCCC(=O)OC1CCC(N(C)C(=O)c2ccc3nonc3c2)CC1)=C(/C)N(C)C=O` (stereo not drawn) [Compound 9, Pentanedioic acid anti-4-[(benzo[c][1,2,5]oxadiazole-5-carbonyl)-methyl-amino]-cyclohexyl ester 3-ethyldisulfanyl-4-(formyl-methyl-amino)-pent-3-enyl ester], in data set [1], the “(AUC0-t)prodrug group/(AUC0-t)prototype drug group” value was 0.51. Also, the “(AUC0-t)prodrug/(AUC0-t)prototype drug” value in data set [2] was 1.74.
Consider `CCCCCSS/C(CCOC(=O)CCCC(=O)OC1CCC(N(C)C(=O)c2ccc3nonc3c2)CC1)=C(/C)N(C)C=O` (stereo not drawn) [Compound 14, Pentanedioic acid anti-4-[(benzo[c][1,2,5]oxadiazole-5-carbonyl)-methyl-amino]-cyclohexyl ester 3-pentyldisulfanyl-4-(formyl-methyl-amino)-pent-3-enyl ester], for which, in data set [1], the “(AUC0-t)prodrug group/(AUC0-t)prototype drug group” value worked out at 0.65. Besides, the “(AUC0-t)prodrug/(AUC0-t)prototype drug” value in data set [2] came to 1.98.
Take `CCSS/C(CCOC(=O)CCCC(=O)OC1CCC(N(C)C(=O)c2ccc3nonc3c2)CC1)=C(/C)N(C=O)CC(=O)OCC(O)C1OC(=O)C(O)=C1O` (stereo not drawn) [Compound 22, Pentanedioic acid anti-4-[(benzo[c][1,2,5]oxadiazole-5-carbonyl)-methyl-amino]-cyclohexyl ester 3-ethyldisulfanyl-4-{[2-(3,4-dihydroxy-5-oxo-2,5-dihydro-furan-2-yl)-2-hydroxy-ethoxycarbonylmethyl]-formyl-amino}-pent-3-enyl ester]: in data set [2], the MRT0-t worked out at 2.00 h and the “(AUC0-t)prodrug/(AUC0-t)prototype drug” value worked out at 1.82.
For the compound `C/C(=C(\CCOC(=O)CCC(=O)OC1CCC(N(C)C(=O)c2ccc3nonc3c2)CC1)SSCC(C)C)N(C)C=O` (stereo not drawn) [Compound 5, Succinic acid anti-4-[(benzo[c][1,2,5]oxadiazole-5-carbonyl)-methyl-amino]-cyclohexyl ester 3-isobutyldisulfanyl-4-(formyl-methyl-amino)-pent-3-enyl ester], in data set [1], the “(AUC0-t)prodrug group/(AUC0-t)prototype drug group” value is 0.67. Further, in data set [2], the “(AUC0-t)prodrug/(AUC0-t)prototype drug” value was found to be 1.70.
Turning to `CCCCCSS/C(CCOC(=O)CCC(=O)OC1CCC(N(C)C(=O)c2ccc3nonc3c2)CC1)=C(/C)N(C)C=O` (stereo not drawn) [Compound 6, Succinic acid anti-4-[(benzo[c][1,2,5]oxadiazole-5-carbonyl)-methyl-amino]-cyclohexyl ester 3-pentyldisulfanyl-4-(formyl-methyl-amino)-pent-3-enyl ester], in data set [1], the “(AUC0-t)prodrug group/(AUC0-t)prototype drug group” value was 0.62. For the same compound, in data set [2], the “(AUC0-t)prodrug/(AUC0-t)prototype drug” value came out at 1.88.
Taken in the same sequence, the figures for `C/C(=C(\CCOC(=O)CCC(=O)OC1CCC(N(C)C(=O)c2ccc3nonc3c2)CC1)SSC(C)C)N(C)C=O` (stereo not drawn) [Compound 3, Succinic acid anti-4-[(benzo[c][1,2,5]oxadiazole-5-carbonyl)-methyl-amino]-cyclohexyl ester 3-isopropyldisulfanyl-4-(formyl-methyl-amino)-pent-3-enyl ester] were 0.62 and 1.77.
Regarding `CCSS/C(CCOC(=O)CCCC(=O)OC1CCC(N(C)C(=O)c2ccc3nonc3c2)CC1)=C(/C)N(C=O)CC(=O)OCC1OC(O)C(O)C(O)C1O` [Compound 20, Pentanedioic acid anti-4-[(benzo[c][1,2,5]oxadiazole-5-carbonyl)-methyl-amino]-cyclohexyl ester 3-ethyldisulfanyl-4-[formyl-(D-glucos-6-yl-carbonylmethyl)-amino]-pent-3-enyl ester], in data set [1], the “(AUC0-t)prodrug group/(AUC0-t)prototype drug group” value stood at 0.82. Further, in data set [2], the “(AUC0-t)prodrug/(AUC0-t)prototype drug” value is on record as 1.65.
Taken in the same sequence, the figures for `CCCCSS/C(CCOC(=O)CCC(=O)OC1CCC(N(C)C(=O)c2ccc3nonc3c2)CC1)=C(/C)N(C)C=O` (stereo not drawn) [Compound 4, Succinic acid anti-4-[(benzo[c][1,2,5]oxadiazole-5-carbonyl)-methyl-amino]-cyclohexyl ester 3-butyldisulfanyl-4-(formyl-methyl-amino)-pent-3-enyl ester] were 0.68 and 1.56.
Taken in the same sequence, the figures for `CCSS/C(CCOC(=O)CCCC(=O)OC1CCC(N(C)C(=O)c2ccc3nonc3c2)CC1)=C(/C)N(C=O)CC` (stereo not drawn) [Compound 17, Pentanedioic acid anti-4-[(benzo[c][1,2,5]oxadiazole-5-carbonyl)-methyl-amino]-cyclohexyl ester 3-ethyldisulfanyl-4-(formyl-ethyl-amino)-pent-3-enyl ester] were 0.61 and 1.55.
On the same counts, the results for `CCCSS/C(CCOC(=O)CCC(=O)OC1CCC(N(C)C(=O)c2ccc3nonc3c2)CC1)=C(/C)N(C)C=O` (stereo not drawn) [Compound 2, Succinic acid anti-4-[(benzo[c][1,2,5]oxadiazole-5-carbonyl)-methyl-amino]-cyclohexyl ester 3-propyldisulfanyl-4-(formyl-methyl-amino)-pent-3-enyl ester] are 0.49 and 1.72.
Consider `CCCCSS/C(CCOC(=O)CCCC(=O)OC1CCC(N(C)C(=O)c2ccc3nonc3c2)CC1)=C(/C)N(C)C=O` (stereo not drawn) [Compound 12, Pentanedioic acid anti-4-[(benzo[c][1,2,5]oxadiazole-5-carbonyl)-methyl-amino]-cyclohexyl ester 3-butyldisulfanyl-4-(formyl-methyl-amino)-pent-3-enyl ester], for which the “(AUC0-t)prodrug group/(AUC0-t)prototype drug group” value in data set [1] stood at 0.46. Further, in data set [2], the “(AUC0-t)prodrug/(AUC0-t)prototype drug” value is 1.92.
Taken in the same sequence, the figures for `C/C(=C(\CCOC(=O)CCCC(=O)OC1CCC(N(C)C(=O)c2ccc3nonc3c2)CC1)SSC(C)C)N(C)C=O` (stereo not drawn) [Compound 11, Pentanedioic acid anti-4-[(benzo[c][1,2,5]oxadiazole-5-carbonyl)-methyl-amino]-cyclohexyl ester 3-isopropyldisulfanyl-4-(formyl-methyl-amino)-pent-3-enyl ester] were 0.72 and 1.92.
On the same counts, the results for `CCSS/C(CCOC(=O)CCC(=O)OC1CCC(N(C)C(=O)c2ccc3nonc3c2)CC1)=C(/C)N(C)C=O` (stereo not drawn) [Compound 1, Succinic acid anti-4-[(benzo[c][1,2,5]oxadiazole-5-carbonyl)-methyl-amino]-cyclohexyl ester 3-ethyldisulfanyl-4-(formyl-methyl-amino)-pent-3-enyl ester] are 0.48 and 1.55.
On the same counts, the results for `CCCN(C=O)/C(C)=C(/CCOC(=O)CCCC(=O)OC1CCC(N(C)C(=O)c2ccc3nonc3c2)CC1)SSCC` (stereo not drawn) [Compound 18, Pentanedioic acid anti-4-[(benzo[c][1,2,5]oxadiazole-5-carbonyl)-methyl-amino]-cyclohexyl ester 3-ethyldisulfanyl-4-(formyl-propyl-amino)-pent-3-enyl ester] are 0.73 and 1.70.
Regarding `C/C(=C(\CCOC(=O)CCC(=O)OC1CCC(N(C)C(=O)c2ccc3nonc3c2)CC1)SSCCC(C)C)N(C)C=O` (stereo not drawn) [Compound 7, Succinic acid anti-4-[(benzo[c][1,2,5]oxadiazole-5-carbonyl)-methyl-amino]-cyclohexyl ester 3-isopentyldisulfanyl-4-(formyl-methyl-amino)-pent-3-enyl ester], the “(AUC0-t)prodrug group/(AUC0-t)prototype drug group” value in data set [1] was 0.53. The “(AUC0-t)prodrug/(AUC0-t)prototype drug” value in data set [2] was 1.49.
`CCCCCCSS/C(CCOC(=O)CCCC(=O)OC1CCC(N(C)C(=O)c2ccc3nonc3c2)CC1)=C(/C)N(C=O)CC(=O)OCC1OC(O)C(O)C(O)C1O` [Compound 21, Pentanedioic acid anti-4-[(benzo[c][1,2,5]oxadiazole-5-carbonyl)-methyl-amino]-cyclohexyl ester 3-hexyldisulfanyl-4-[formyl-(D-glucos-6-yl-carbonylmethyl)-amino]-pent-3-enyl ester]: in data set [2], the MRT0-t stood at 1.91 h and the “(AUC0-t)prodrug/(AUC0-t)prototype drug” value is 1.68.
As for `C/C(=C(\CCOC(=O)CCC(=O)OC1CCC(N(C)C(=O)c2ccc3nonc3c2)CC1)SSCc1ccccc1)N(C)C=O` (stereo not drawn) [Compound 8, Succinic acid anti-4-[(benzo[c][1,2,5]oxadiazole-5-carbonyl)-methyl-amino]-cyclohexyl ester 3-benzyldisulfanyl-4-(formyl-methyl-amino)-pent-3-enyl ester], the “(AUC0-t)prodrug group/(AUC0-t)prototype drug group” value in data set [1] was 0.62. Besides, the “(AUC0-t)prodrug/(AUC0-t)prototype drug” value in data set [2] came to 1.73.
